Data on 6 compounds can be found in patent publication US9241484B2, “Compositions of dibromomalonamide and their use as biocides” (Dow Global Technologies LLC, priority 2011, dated 2016).

The test system of the test is mixture of Pseudomonas aeruginosa, Klebsiella pneumoniae, Staphylococcus aureus, and Bacillus subtilis. As to the kind of experiment: Growth inhibition assay (microtiter plate-based synergy assay). Conditions: active used alone; dilute mineral salts medium pH 7.5; 37° C., 24 hr; OD580.
From the text: Growth Inhibition Assay. […] Regardless of the mechanism of action, the impact of a biocide (or combination of biocides) can be measured over time on the basis of an increase in the size of the community.
The assay measures the efficacy of one or more biocides at preventing growth of a consortium of bacteria in a dilute mineral salts medium. The medium contains (in mg/l) the following components: FeCl3.6H2O (1); CaCl2.2H2O (10); MgSO4.7H2O (22.5); (NH4)2SO4 (40); KH2PO4 (10); K2HPO4 (25.5); Yeast Extract (10); and glucose (100). After all components are added to deionized water, the pH of the medium is adjusted to 7.5. Following filter sterilization, aliquots are dispensed in 100 μl quantities to sterile microtiter plate wells. Dilutions of 2,2-dibromomalonamide (“DBMAL”) and/or “Biocide B” are then added to the microtiter plate. After preparing the combinations of actives as illustrated below, each well is inoculated with 100 μl of a cell suspension containing ca. 1×10^6 cells per milliliter of a mixture of Pseudomonas aeruginosa, Klebsiella pneumoniae, Staphylococcus aureus, and Bacillus subtilis. The final total volume of medium in each well is 300 μl. Once prepared as described herein, the concentration of each active ranges from 25 ppm to 0.195 ppm as illustrated in Table 1. The resulting matrix allows testing of eight concentrations of each active and 64 combinations of actives in the ratios (of actives).
Immediately after the microtiter plates are prepared, the optical density (OD) readings for each well is measured at 580 nm and the plates are then incubated at 37° C. for 24 hr. After the incubation period, the plates are gently agitated before OD580 values are collected. The OD580 values at T0 are subtracted from T24 values to determine the total amount of growth (or lack thereof) that occurs. These values are used to calculate the percent inhibition of growth caused by the presence of each biocide and each of the 64 combinations. A 90% inhibition of growth is used as a threshold for calculating synergy index (SI) values with the following equation: Synergy Index=MDBMAL/CDBMAL+MB/CB
where • CDBMAL: Concentration of DBMAL required to inhibit ≧90% of bacterial growth when used alone • CB: Concentration of biocide (B) required to inhibit ≧90% of bacterial growth when used alone. • MDBMAL: Concentration of DBMAL required to inhibit ≧90% of bacterial growth when used in combination with biocide (B). • MB: Concentration of biocide (B) required to inhibit ≧90% of bacterial growth when used in combination with DBMAL The SI values are interpreted as follows: • SI<1: Synergistic combination • SI=1: Additive combination • SI>1: Antagonistic combination
In the Examples below, the amounts of biocides in the solution are measured in mg per liter of solution (mg/l). Since solution densities are approximately 1.00, the mg/l measurement corresponds to weight and can be expressed as parts per million (ppm). Both units may therefore be used interchangeably in the Examples.
For the compound `CC1(C)C(=O)N(Br)C(=O)N1Br` [DBDMH, dibromodimethylhydantoin], the “I90 value (minimum concentration to result in at least 90% inhibition of growth)” value is 3.13 mg/L.

In the case of `NC(=O)C(Br)(Br)C(N)=O` [DBMAL, 2,2-dibromomalonamide], the “I90 value (minimum concentration to result in at least 90% inhibition of growth)” value was found to be 6.25 mg/L.

For `CC1(C)C(=O)N(Cl)C(=O)N1Cl` [DCDMH, dichlorodimethylhydantoin], the “I90 value (minimum concentration to result in at least 90% inhibition of growth)” value amounted to 0.78 mg/L. To `OBr` [HOBr, hypobromous acid] belongs 12.5 mg/L; to `OCl` [HOCl, hypochlorous acid], 0.78 mg/L. As to monochlorodimethylhydantoin [MCDMH], the “I90 value (minimum concentration to result in at least 90% inhibition of growth)” value came out at 3.13 mg/L.
